Experimental data: patent publication US7329649B2, “Combinatorial methods for inducing cancer cell death” (The Trustees of Columbia University in the City of New York, priority 2001, dated 2008)

System: mutated or wild type K-ras expressing pancreatic carcinoma cells
Assay: Cell growth and viable cell numbers (hemocytometer, MTT)
Format: cell-based, human
Procedure: FIG. 5. […] Cells were treated with the indicated agents for three days and viable cell counts were determined by hemocytometer.
Cell lines, culture conditions and growth assays.

Substance	growth suppression compared with AS K-ras PS ODN
SC PS ODN: scrambled K-ras PS ODN ACTAGCTATACTAGCTAT (SEQ ID NO:17) (DNA, all phosphorothioate, methylation of C not given here)	significantly less growth suppression
MM PS ODN: mismatched K-ras PS ODN CACTTGCAAATATTCAGT (SEQ ID NO:16) (DNA, all phosphorothioate, methylation of C not given here)	significantly less growth suppression
